The target in experiment [1] is T1, ACLY (Homo sapiens (Human), UniProt P53396). In words: Human ACLY (hACLY) RF/MS activity assay. In kind it is biochemical. The settings on record: 1 nM hACLY; 30 min pre-incubation; 15 μM Coenzyme A, 50 μM ATP, 50 μM citrate; CoA to Acetyl-CoA by RF/MS; read-out: RFMS IC50 GMean. The procedure:
Compounds of the disclosure were evaluated for their efficacy in inhibiting hACLY using rapid fire mass spectrometry (RF/MS).
The final reaction volume for each compound was 20 μl and consisted of buffer (50 mM Hepes pH 8.0, 10 mM MgCl2, 0.003% BSA, 0.01% Brij35, 50 mM NaCl, 4 mM DTT) and 1 nM hACLY, EV12992, PP6692) using Greiner, 384 well small volume, deep well plates (Cat #784201). A two-fold dilution series with a top concentration of 10 μM was used to record a concentration response curve. Both the substrate (CoA) and product (Acetyl-CoA) were quantified, and given a ratio. […] The final DMSO-concentration was 1% (v/v). Compounds were pre-incubated for 30 min with the buffered enzyme solution at RT (20° C.), and substrate solution was added (final concentrations: 15 μM Coenzyme A, 50 μM ATP and 50 μM citrate) to initiate the enzyme reaction. The enzyme reaction was incubated for additional 30 min at RT. The reaction was quenched upon addition of 40 μl of 5% Formic acid in H2O and centrifuged (4350 rpm at 20° C. for 10 min).
Product formation was quantified using a RF/MS-based method based on mass change of CoA (substrate) to Acetyl-CoA (product).

Experiment [2] concerns the target T1, ACLY. Kind of experiment: InCell Pulse assay (permeate HEK293 cells, bind to and stabilize ACLY). Type of experiment: cell-based. The settings on record: HEK293 cells transfected with pICP-ACLY(FL)-ePL; 1 hour at 37° C., 55° C. heat pulse 10 minutes; read-out: InCell Pulse IC50 GMean. The procedure:
HEK293 cells transfected for 24 hours with pICP-ACLY(FL)-ePL (3 μg DNA per T25 flask) using FuGene HD (Promega Corp.) were harvested and cryopreserved. On the day of the assay, the frozen transfected cells were thawed at 37° C., and the storage medium (DMEM with 2 mM L-Glutamine, 10% FBS and a final concentration of DMSO 10%) was exchanged with assay medium (OptiMEM; Gibco™, ThermoFischer Scientific). Compounds were 3-fold serially diluted in DMSO over 11-point concentration range. 100 nL of the corresponding dilutions were spotted into the assay plate (Greiner AG; 384 Well, PP, Small Volume, Deep Well, Natural, cat. no. 784201) followed by the addition of 20 μL of cell suspension adjusted with assay medium to 7.5E4 cells/mL. Subsequently, the plates were sealed and incubated for 1 hour at 37° C. Afterwards, the plates were fixed upside down in a rack and incubated in a 55° C. water bath for 10 minutes. Following this heat pulse step, plates were allowed to reach room temperature for 10 minutes and centrifuged for a few seconds at 1000 rpm and room temperature. 25 μL EA detection solution (working solution: 0.0167× InCell EA Reagent, 0.15× InCell Dilution Buffer, 0.167× InCell Lysis Buffer; 0.667× InCell Substrate Reagent; InCell Hunter Detection kit; Eurofins DiscoverX; cat. no. 96-0079) were added to each well. Afterwards, 42 μL were transferred from the assay plate to the detection plate (Corning Inc., 384-well Low Flange Black Flat Bottom Polystyrene NBS Microplate, cat. no. 3575), followed by an incubation for 1 hour at room temperature, a centrifugation step for 1 minute at 1000 rpm and the detection of the luminescence signal using an EnVision microplate reader (Perkin Elmer Inc.). Concentration-response curve-fitting and IC50 determination was performed using Evotec's in-house evaluation software APlus with a four-parameter non-linear regression fit model. Data was normalized to 0.5% (final concentration) DMSO as low/negative control and 1 μM (final concentration) NDI-094311 as high/positive control.

SMILES strings stand for the structures. Bounds are passed on as bounds.

T1 sequence (P53396 whole entry): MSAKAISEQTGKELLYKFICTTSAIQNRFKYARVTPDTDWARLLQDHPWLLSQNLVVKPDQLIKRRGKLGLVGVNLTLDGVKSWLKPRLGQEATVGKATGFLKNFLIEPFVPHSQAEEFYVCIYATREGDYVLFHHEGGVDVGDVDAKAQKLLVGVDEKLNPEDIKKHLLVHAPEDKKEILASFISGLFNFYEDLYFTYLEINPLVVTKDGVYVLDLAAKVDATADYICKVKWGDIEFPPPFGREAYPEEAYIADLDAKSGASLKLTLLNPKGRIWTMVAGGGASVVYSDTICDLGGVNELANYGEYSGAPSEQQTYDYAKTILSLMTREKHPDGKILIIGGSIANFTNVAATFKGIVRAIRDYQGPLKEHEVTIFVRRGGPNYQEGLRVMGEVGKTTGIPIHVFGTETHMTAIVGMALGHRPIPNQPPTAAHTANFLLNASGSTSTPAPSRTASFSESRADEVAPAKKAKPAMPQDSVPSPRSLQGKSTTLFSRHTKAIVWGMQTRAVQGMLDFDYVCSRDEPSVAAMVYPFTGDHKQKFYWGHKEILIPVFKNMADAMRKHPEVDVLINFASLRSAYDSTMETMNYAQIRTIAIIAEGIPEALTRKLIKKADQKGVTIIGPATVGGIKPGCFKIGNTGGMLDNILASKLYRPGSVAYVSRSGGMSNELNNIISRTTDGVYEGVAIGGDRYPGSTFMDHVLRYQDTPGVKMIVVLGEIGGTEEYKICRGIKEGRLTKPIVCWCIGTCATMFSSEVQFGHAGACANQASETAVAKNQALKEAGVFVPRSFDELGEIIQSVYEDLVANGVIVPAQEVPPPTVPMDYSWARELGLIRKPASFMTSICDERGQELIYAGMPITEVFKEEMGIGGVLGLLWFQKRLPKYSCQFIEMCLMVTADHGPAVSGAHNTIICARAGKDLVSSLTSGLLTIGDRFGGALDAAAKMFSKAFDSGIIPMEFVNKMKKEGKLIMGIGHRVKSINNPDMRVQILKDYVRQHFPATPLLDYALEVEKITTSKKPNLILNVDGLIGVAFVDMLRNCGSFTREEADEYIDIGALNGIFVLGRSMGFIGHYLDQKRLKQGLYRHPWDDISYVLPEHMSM

As to `Nc1cc2cc(n1)S(=O)(=O)Nc1cc(c(F)cc1F)-c1ccccc1OCCOC2=O` [Compound 63, 15-amino-21,23-difluoro-18,18-dioxo-8,11-dioxa-18λ6-thia-16,19-diazatetracyclo[18.3.1.113,17.02,7]pentacosa-1(23),2(7),3,5,13,15,17(25),20(24),21-nonaen-12-one], the figures for the IC50 in experiment [1] and in experiment [2] were at least 10000 nM and at least 50000 nM, respectively.
The matching figures for `O=C1OCCc2cc(F)ccc2-c2ccc(F)c(c2)NS(=O)(=O)c2cc1cc(Cl)c2O` [Compound 73, 14-chloro-5,20-difluoro-15-hydroxy-17,17-dioxo-10-oxa-17λ6-thia-18-azatetracyclo[17.3.1.112,16.02,7]tetracosa-1(22),2(7),3,5,12,14,16(24),19(23),20-nonaen-11-one]: 20 to 100 nM and below 300 nM.
The matching figures for `O=C1OCCOc2ccc(F)cc2-c2ccc(F)c(c2)NS(=O)(=O)c2cc1cc(Cl)c2O` [Compound 46, 15-chloro-4,21-difluoro-16-hydroxy-18,18-dioxo-8,11-dioxa-18λ6-thia-19-azatetracyclo[18.3.1.113,17.02,7]pentacosa-1(23),2(7),3,5,13,15,17(25),20(24),21-nonaen-12-one]: below 20 nM and below 300 nM.
For the molecule `N#Cc1ccc2c(c1)-c1cc(c(F)cc1F)NS(=O)(=O)c1cc(cc(Cl)c1O)C(=O)OC2` [Compound 86, 13-chloro-19,21-difluoro-14-hydroxy-10,16,16-trioxo-9-oxa-16λ6-thia-17-azatetracyclo[16.3.1.111,15.02,7]tricosa-1(21),2,4,6,11(23),12,14,18(22),19-nonaene-4-carbonitrile], the IC50 (commonly the concentration that inhibits the measured activity by half) in experiment [1] lay within 100 to 10000 nM; in experiment [2] it was 300 to 1000 nM.
Regarding `O=C1OCCOc2ccccc2-c2ccc(F)c(c2)NS(=O)(=O)c2cc1cc(Cl)c2O` [Compound 23, 15-chloro-21-fluoro-16-hydroxy-8,11-dioxa-18lambda6-thia-19-azatetracyclo[18.3.1.1^13,17.0^2,7]pentacosa-1(24),2,4,6,13,15,17(25),20,22-nonaene-12,18,18-trione], the results for the IC50 in experiment [1] and in experiment [2] were below 20 nM and below 300 nM, respectively.
Regarding `Cc1cc2cc(n1)S(=O)(=O)Nc1cc(c(F)cc1F)-c1ccccc1OCCOC2=O` [Compound 62, 21,23-difluoro-15-methyl-18,18-dioxo-8,11-dioxa-18λ6-thia-16,19-diazatetracyclo[18.3.1.113,17.02,7]pentacosa-1(24),2,4,6,13,15,17(25),20,22-nonaen-12-one], the figures for the half-inhibitory concentration (IC50) in experiment [1] and in experiment [2] were at least 10000 nM and at least 50000 nM, respectively.
Consider `O=C1OCCc2ccc(F)cc2-c2ccc(F)c(c2)NS(=O)(=O)c2cc1cc(Cl)c2O` [Compound 74, 14-chloro-4,20-difluoro-15-hydroxy-17,17-dioxo-10-oxa-17λ6-thia-18-azatetracyclo[17.3.1.112,16.02,7]tetracosa-1(22),2(7),3,5,12(24),13,15,19(23),20-nonaen-11-one], for which the figures for the IC50 in experiment [1] and in experiment [2] were 20 to 100 nM and below 300 nM, respectively.
The matching figures for `CC1CCOC(=O)c2cc(Cl)c(O)c(c2)S(=O)(=O)Nc2cc(c(F)cc2F)-c2ccccc21` (single isomer, unassigned) [Compound 45, 15-chloro-21,23-difluoro-16-hydroxy-8-methyl-18,18-dioxo-11-oxa-18λ6-thia-19-azatetracyclo[18.3.1.113,17.02,7]pentacosa-1(23),2(7),3,5,13,15,17(25),20(24),21-nonaen-12-one]: 20 to 100 nM and below 300 nM.
The matching figures for `COc1ccc2cc1NS(=O)(=O)c1cc(cc(Cl)c1O)C(=O)OCCOc1ccccc1-2` [Compound 26, 15-chloro-16-hydroxy-21-methoxy-8,11-dioxa-18lambda6-thia-19-azatetracyclo[18.3.1.1^13,17.0^2,7]pentacosa-1(24),2,4,6,13,15,17(25),20,22-nonaene-12,18,18-trione]: below 20 nM and 300 to 1000 nM.
The matching figures for `O=C1OCc2ccccc2-c2cc(F)c(F)c(c2)NS(=O)(=O)c2cc1cc(Cl)c2O` [Compound 82, 13-chloro-19,20-difluoro-14-hydroxy-16,16-dioxo-9-oxa-16λ6-thia-17-azatetracyclo[16.3.1.111,15.02,7]tricosa-1(21),2,4,6,11(23),12,14,18(22),19-nonaen-10-one]: below 20 nM and below 300 nM.
With `O=C1NCCOc2ccccc2-c2cc(c(F)cc2F)NCc2cc1ccc2O` [Compound 13, 21,23-difluoro-16-hydroxy-8-oxa-11,19-diazatetracyclo[18.3.1.1^13,17.0^2,7]pentacosa-1(23),2,4,6,13,15,17(25),20(24),21-nonaen-12-one], the IC50 in experiment [1] is at least 10000 nM; in experiment [2] it was at least 50000 nM.
The matching figures for `O=S1(=O)Nc2cc(ccc2F)-c2ccccc2CCCOCc2cc(Cl)c(O)c1c2` [Compound 92, 15-chloro-21-fluoro-18,18-dioxo-11-oxa-18λ6-thia-19-azatetracyclo[18.3.1.113,17.02,7]pentacosa-1(24),2,4,6,13,15,17(25),20,22-nonaen-16-ol]: 100 to 10000 nM and 1000 to 50000 nM.
The matching figures for `O=C1OCCOc2ccc(Br)cc2-c2cc(c(F)cc2F)NS(=O)(=O)c2cc1cc(Cl)c2O` [Compound 24, 4-bromo-15-chloro-21,23-difluoro-16-hydroxy-8,11-dioxa-18lambda6-thia-19-azatetracyclo[18.3.1.1^13,17.0^2,7]pentacosa-1(24),2,4,6,13,15,17(25),20,22-nonaene-12,18,18-trione]: 20 to 100 nM and below 300 nM.
The matching figures for `O=C1NCCOc2ccccc2-c2cc(c(F)cc2F)CS(=O)(=O)c2cc1cc(Cl)c2O` [Compound 14, 15-chloro-21,23-difluoro-16-hydroxy-8-oxa-18lambda6-thia-11-azatetracyclo[18.3.1.1^13,17.0^2,7]pentacosa-1(24),2,4,6,13,15,17(25),20,22-nonaene-12,18,18-trione]: at least 10000 nM and at least 50000 nM.
For the molecule `O=C1OCC[C@H]2CCCN2c2ccc(F)c(c2)NS(=O)(=O)c2cc1cc(Cl)c2O` [Compound 70, (6R)-13-chloro-19-fluoro-14-hydroxy-16,16-dioxo-9-oxa-16%6-thia-2,17-diazatetracyclo[16.3.1.111,15.02,6]tricosa-1(21),11(23),12,14,18(22),19-hexaen-10-one], the values for the IC50 in experiment [1] and in experiment [2] were 20 to 100 nM and at least 50000 nM, respectively.
The matching figures for `O=C1OCCOc2ccccc2-c2ccc(OC(F)F)c(c2)NS(=O)(=O)c2cc1cc(Cl)c2O` [Compound 55, 15-chloro-21-(difluoromethoxy)-16-hydroxy-18,18-dioxo-8,11-dioxa-18λ6-thia-19-azatetracyclo[18.3.1.113,17.02,7]pentacosa-1(23),2(7),3,5,13(25),14,16,20(24),21-nonaen-12-one]: below 20 nM and 300 to 1000 nM.
The matching figures for `O=C1OCc2ccccc2-c2ccc(F)c(c2)NS(=O)(=O)c2cc1cc(Cl)c2O` [Compound 84, 13-chloro-19-fluoro-14-hydroxy-16,16-dioxo-9-oxa-16λ6-thia-17-azatetracyclo[16.3.1.111,15.02,7]tricosa-1(21),2(7),3,5,11(23),12,14,18(22),19-nonaen-10-one]: 100 to 10000 nM and below 300 nM.
The matching figures for `Cn1cc2cc(c1=O)S(=O)(=O)Nc1cc(c(F)cc1F)-c1ccccc1OCCOC2=O` [Compound 35, 21,23-difluoro-15-methyl-18,18-dioxo-8,11-dioxa-18λ6-thia-15,19-diazatetracyclo[18.3.1.113,17.02,7]pentacosa-1(23),2(7),3,5,13,17(25),20(24),21-octaene-12,16-dione]: at least 10000 nM and at least 50000 nM.

The values are drawn from US20250289793A1, “MACROCYCLIC INHIBITORS OF ATP CITRATE LYASE” (Esperion Therapeutics, Inc., priority 2022, published 2025).
